For 22 compounds, responders and ED50 results are on record in US9315451B2, “Tetracycline compounds” (priority 2009, dated 2016).

Read-outs that look alike come from different tables or passages of the source.

The assay concerns S. aureus Smith (ATCC 13709). Description: Mouse systemic infection (septicemia) model, S. aureus Smith. The class given is in vivo. Conditions: Staphylococcus aureus, CD-1 female mice; for responders at 3 mg/kg: IV 3 mg/kg one hour post infection, read-out: SA Smith septicemia survival IV (3 mg/kg); for responders at 3 mg/kg / responders at 30 mg/kg: survival at 48 hours; for responders at 30 mg/kg: PO 30 mg/kg one hour post infection, read-out: SA Smith septicemia survival PO (30 mg/kg); for ED50: dose that prevents 50% of the mice from death, 48 hours. The procedure: Mouse Systemic Infection Protocol-S. aureus Smith Septicemia
Compounds were screened for antibacterial activity in vivo in a mouse systemic infection (septicemia) model. In the model, CD-1 female mice (18-22 grams) were injected IP with a S. aureus Smith (ATCC 13709) inoculum that results in 0% survival within 24 to 48 hours. The bacterial dose required to achieve this effect was previously established through virulence studies. At one hour post infection, mice received either […] IV or […] PO. Typically, six mice were treated per dose group. Animal survival was assessed and recorded for 48 hours. Percent survival at 48 hours was recorded and PD50 (mg/kg) was determined for each compound tested.

Where [1] appears, read: ATCC13709, PO, read-out: SA Smith septicemia PD50 PO.

`C[C@@H]1CC[C@H](C)N1Cc1cc(O)c2c(c1Cl)C[C@H]1C[C@H]3[C@H](N(C)C)C(O)=C(C(N)=O)C(=O)[C@@]3(O)C(O)=C1C2=O` [Compound S15-13-203]: the responders at 3 mg/kg (ATCC13709, iv, 48 h) is 100%. Besides, for the setting “ATCC13709, po, 48 h”, the responders at 30 mg/kg was 100%.
For `CC(C)N(Cc1cc(O)c2c(c1Cl)C[C@H]1C[C@H]3[C@H](N(C)C)C(O)=C(C(N)=O)C(=O)[C@@]3(O)C(O)=C1C2=O)CC1CC1` [Compound S15-13-215], the responders at 3 mg/kg (ATCC13709, iv, 48 h) is 50%. Also, for the setting “ATCC13709, po, 48 h”, the responders at 30 mg/kg amounted to 50%.
With `C[C@@H]1CCC[C@H](C)N1Cc1cc(O)c2c(c1Cl)C[C@H]1C[C@H]3[C@H](N(C)C)C(O)=C(C(N)=O)C(=O)[C@@]3(O)C(O)=C1C2=O` [Compound S15-13-221], the responders at 3 mg/kg (ATCC13709, iv, 48 h) was 33%. The responders at 30 mg/kg (ATCC13709, po, 48 h) is 50%.
With `CN(C)[C@@H]1C(O)=C(C(N)=O)C(=O)[C@@]2(O)C(O)=C3C(=O)c4c(O)cc(CN5C6CCC5CC6)c(Cl)c4C[C@H]3C[C@@H]12` [Compound S15-13-222], under “ATCC13709”, the responders at 3 mg/kg worked out at 100% and the responders at 30 mg/kg came to 100%.
Regarding `C[C@H]1CCC[C@H](C)N1Cc1cc(O)c2c(c1Cl)C[C@H]1C[C@H]3[C@H](N(C)C)C(O)=C(C(N)=O)C(=O)[C@@]3(O)C(O)=C1C2=O` [Compound S15-13-225], the responders at 3 mg/kg (ATCC13709, iv, 48 h) was determined as 100%. Where the note is “ATCC13709, po, 48 h”, the responders at 30 mg/kg amounted to 100%.
Regarding `CN(C)[C@@H]1C(O)=C(C(N)=O)C(=O)[C@@]2(O)C(O)=C3C(=O)c4c(O)cc(CN5CC[C@H](F)C5)c(Cl)c4C[C@H]3C[C@@H]12` [Compound S15-13-226], the responders at 3 mg/kg (ATCC13709, iv, 48 h) was 100%. In addition, the responders at 30 mg/kg (ATCC13709, po, 48 h) was 83%.
For the compound `CN(C)C(=O)C(C)(C)N(C)Cc1cc(O)c2c(c1Cl)C[C@H]1C[C@H]3[C@H](N(C)C)C(O)=C(C(N)=O)C(=O)[C@@]3(O)C(O)=C1C2=O` [Compound S15-13-227], where the note is “ATCC13709, iv, 48 h”, the responders at 3 mg/kg stood at 17%. In addition, under “ATCC13709, po, 48 h”, the responders at 30 mg/kg was found to be 0%.
For the compound `CN(C)c1c(CN2CCCC2(C)C)cc(O)c2c1C[C@H]1C[C@H]3[C@H](N(C)C)C(O)=C(C(N)=O)C(=O)[C@@]3(O)C(O)=C1C2=O` [Compound S16-10-11], the responders at 3 mg/kg (ATCC13709, iv, 48 h) is 100%. Further, the responders at 30 mg/kg (ATCC13709, po, 48 h) was found to be 100%. Moreover, under setting [1], the ED50 is 10 mg/kg.
With `CN(C)c1c(CNC2C3CC4CC(C3)CC2C4)cc(O)c2c1C[C@H]1C[C@H]3[C@H](N(C)C)C(O)=C(C(N)=O)C(=O)[C@@]3(O)C(O)=C1C2=O` (some centres unmarked) [Compound S16-10-18], the responders at 3 mg/kg (ATCC13709, iv, 48 h) worked out at 17%. In addition, the responders at 30 mg/kg (ATCC13709, po, 48 h) worked out at 0%.
Turning to `CN(C)c1c(CN(C)C2(C)CCC2)cc(O)c2c1C[C@H]1C[C@H]3[C@H](N(C)C)C(O)=C(C(N)=O)C(=O)[C@@]3(O)C(O)=C1C2=O` [Compound S16-10-107], the responders at 3 mg/kg (ATCC13709, iv, 48 h) came out at 100%. For the same compound, the responders at 30 mg/kg (ATCC13709, po, 48 h) was 100%.
`CN(C)c1c(CN2CCCCCC2)cc(O)c2c1C[C@H]1C[C@H]3[C@H](N(C)C)C(O)=C(C(N)=O)C(=O)[C@@]3(O)C(O)=C1C2=O` [Compound S16-10-177]: the responders at 3 mg/kg (ATCC13709, iv, 48 h) amounted to 100%. Moreover, under “ATCC13709, po, 48 h”, the responders at 30 mg/kg came out at 100%.
On to `CN(C)[C@@H]1C(O)=C(C(N)=O)C(=O)[C@@]2(O)C(O)=C3C(=O)c4c(cc(F)c(CNCC(C)(C)C)c4O)C[C@H]3C[C@@H]12` [Compound S19-8-1], for which, for the setting “ATCC13709, iv, 48 h”, the responders at 3 mg/kg turned out to be 100%. The responders at 30 mg/kg (ATCC13709, po, 48 h) amounted to 100%. For the same compound, the ED50 runs as follows: (ATCC13709, IV, read-out: SA Smith septicemia PD50 IV) 0.36 mg/kg; under setting [1], 12.2 mg/kg.
`CN(C)[C@@H]1C(O)=C(C(N)=O)C(=O)[C@@]2(O)C(O)=C3C(=O)c4c(O)cc(NC(=O)CN5CCCC5)cc4C[C@H]3C[C@@H]12` [Compound S21-12-1]: the responders at 3 mg/kg (ATCC13709, iv, 48 h) came to 100%. For the setting “ATCC13709, po, 48 h”, the responders at 30 mg/kg was 33%.
On the same counts, the results for `COc1c(CN2CCCC2(C)C)cc(O)c2c1C[C@H]1C[C@H]3[C@H](N(C)C)C(O)=C(C(N)=O)C(=O)[C@@]3(O)C(O)=C1C2=O` [Compound S24-9-10] are 100% and 100%.
Consider `CCC(C)(C)N(C)Cc1cc(O)c2c(c1OC)C[C@H]1C[C@H]3[C@H](N(C)C)C(O)=C(C(N)=O)C(=O)[C@@]3(O)C(O)=C1C2=O` [Compound S24-9-19], for which, under “ATCC13709, iv, 48 h”, the responders at 3 mg/kg worked out at 100%. In addition, the responders at 30 mg/kg (ATCC13709, po, 48 h) was 100%.
Regarding `CN(C)[C@@H]1C(O)=C(C(N)=O)C(=O)[C@@]2(O)C(O)=C3C(=O)c4c(O)cc(CN[C@H]5CC6CCC5C6)c(C(F)(F)F)c4C[C@H]3C[C@@H]12` (some centres unmarked) [Compound S25-11-12], the responders at 3 mg/kg (ATCC13709, iv, 48 h) stood at 0%. In addition, the responders at 30 mg/kg (ATCC13709, po, 48 h) was determined as 20%.
With `C[C@H]1CCCN1Cc1cc(O)c2c(c1C(F)(F)F)C[C@H]1C[C@H]3[C@H](N(C)C)C(O)=C(C(N)=O)C(=O)[C@@]3(O)C(O)=C1C2=O` [Compound S25-11-48], for the setting “ATCC13709, iv, 48 h”, the responders at 3 mg/kg was found to be 100%. Moreover, for the setting “ATCC13709, po, 48 h”, the responders at 30 mg/kg was found to be 100%.
For the compound `CN(C)[C@@H]1C(O)=C(C(N)=O)C(=O)[C@@]2(O)C(O)=C3C(=O)c4c(O)cc(CN5CCCCCC5)c(C(F)(F)F)c4C[C@H]3C[C@@H]12` [Compound S25-11-56], the responders at 3 mg/kg (ATCC13709, iv, 48 h) was found to be 67%. The responders at 30 mg/kg (ATCC13709, po, 48 h) was found to be 33%.
Consider `CN(C)[C@@H]1C(O)=C(C(N)=O)C(=O)[C@@]2(O)C(O)=C3C(=O)c4c(O)cc(CN5CCCCC5)c(C(F)(F)F)c4C[C@H]3C[C@@H]12` [Compound S25-11-68], for which the responders at 3 mg/kg (ATCC13709, iv, 48 h) came out at 50%. Also, the responders at 30 mg/kg (ATCC13709, po, 48 h) turned out to be 83%.
Regarding `CC(C)[C@@H](C)NCc1cc(O)c2c(c1C(F)(F)F)C[C@H]1C[C@H]3[C@H](N(C)C)C(O)=C(C(N)=O)C(=O)[C@@]3(O)C(O)=C1C2=O` [Compound S25-11-171], the responders at 3 mg/kg (ATCC13709, iv, 48 h) is 83%. Under “ATCC13709, po, 48 h”, the responders at 30 mg/kg worked out at 17%.
Turning to `CN(C)[C@@H]1C(O)=C(C(N)=O)C(=O)[C@@]2(O)C(O)=C3C(=O)c4c(O)cc(C(C)(C)N(C)CC5CCCC5)c(F)c4C[C@H]3C[C@@H]12` [Compound S27-9-5], the responders at 3 mg/kg (ATCC13709, iv, 48 h) was 83%. Also, the responders at 30 mg/kg (ATCC13709, po, 48 h) came out at 67%.
Taken in the same sequence, the figures for `CC(C)CN(C)C(C)(C)c1cc(O)c2c(c1Cl)C[C@H]1C[C@H]3[C@H](N(C)C)C(O)=C(C(N)=O)C(=O)[C@@]3(O)C(O)=C1C2=O` [Compound S27-9-7] were 17% and 33%.
